In patent US20030049337A1, “Composition for preventing fructose absorption” (NAGAOKA PERFUMERY CO., LTD, priority 2001, published 2003):

Tested on: Wistar SPF rats
Settings: rat, in vivo
Procedure: The subacute toxicity test by oral administration was conducted using Wistar SPF rats. That is, the rats were divided into the control group (n=7) to which the athrocytosis of the usual feed is carried out, and the eucalyptus group (n=7) to which the athrocytosis of the feed which mixed the eucalyptus extract of 1 volume % with usual feed is carried out, and bred each individually. The rats of these groups were made to carry out free ingestion of feed and the potable water.
The amount of food ingested and the amount of drinking water of rats of these groups were measured every day, and weight change was measured twice per week. The test was continued for five weeks. After the test end, by collecting blood from the heart, rats were made to die and pathological changes, malformation, etc. of each organization, such as internal organs, were confirmed after dissection.

With eucalyptus extract the “amount of cholesterol in liver vs control group” value was “significant difference was not observed”, the “amount of drinking water vs control group” value was “significant difference was not accepted” and the “amount of food ingested vs control group” value was “significant difference was not accepted”. For the same substance, the “amount of triglyceride in liver vs control group” value was “significant difference was not observed” and the “weight change vs control group” value was “significant difference was not accepted”.
